Target: Mitogen-activated protein kinase kinase kinase 14 (Homo sapiens, UniProt Q99558)
Experiment: Inhibition of auto-phosphorylation of recombinant human NF-kappaB-inducing kinase (NIK/MAP3K14) activity: NIK/MAP3K14 auto-phosphorylation activity was measured using the AlphaScreen® (αscreen) format (Perkin Elmer). All compounds tested were dissolved in dimethyl sulfoxide (DMSO) and further dilutions were made in assay buffer. Final DMSO concentration was 1% (v/v) in assays. Assay buffer was 50 mM Tris pH 7.5 containing 1 mM EGTA (ethylene glycol tetraacetic acid), 1 mM DTT (dithiothreitol), 0.1 mM Na3VO4, 5 mM MgCl2, 0.01% Tween® 20. Assays were carried out in 384 well Alphaplates (Perkin Elmer). Incubations consisted of compound, 25 microM Adenosine-5′-triphosphate (ATP), and 0.2 nM NIK/MAP3K14. Incubations were initiated by addition of GST-tagged NIK/MAP3K14 enzyme, carried out for 1 h at 25° C. and terminated by addition of stop buffer containing anti-phospho-IKK Ser176/180 antibody. Protein A Acceptor and Glutathione-Donor beads were added before reading using an EnVision® Multilabel Plate Reader (Perkin Elmer). Signal obtained in the wells containing blank samples was subtracted from all other wells and IC50's were determined by fitting a sigmoidal curve to % inhibition of control versus Log10 compound concentration.

Sequence of Mitogen-activated protein kinase kinase kinase 14 (Q99558 whole entry): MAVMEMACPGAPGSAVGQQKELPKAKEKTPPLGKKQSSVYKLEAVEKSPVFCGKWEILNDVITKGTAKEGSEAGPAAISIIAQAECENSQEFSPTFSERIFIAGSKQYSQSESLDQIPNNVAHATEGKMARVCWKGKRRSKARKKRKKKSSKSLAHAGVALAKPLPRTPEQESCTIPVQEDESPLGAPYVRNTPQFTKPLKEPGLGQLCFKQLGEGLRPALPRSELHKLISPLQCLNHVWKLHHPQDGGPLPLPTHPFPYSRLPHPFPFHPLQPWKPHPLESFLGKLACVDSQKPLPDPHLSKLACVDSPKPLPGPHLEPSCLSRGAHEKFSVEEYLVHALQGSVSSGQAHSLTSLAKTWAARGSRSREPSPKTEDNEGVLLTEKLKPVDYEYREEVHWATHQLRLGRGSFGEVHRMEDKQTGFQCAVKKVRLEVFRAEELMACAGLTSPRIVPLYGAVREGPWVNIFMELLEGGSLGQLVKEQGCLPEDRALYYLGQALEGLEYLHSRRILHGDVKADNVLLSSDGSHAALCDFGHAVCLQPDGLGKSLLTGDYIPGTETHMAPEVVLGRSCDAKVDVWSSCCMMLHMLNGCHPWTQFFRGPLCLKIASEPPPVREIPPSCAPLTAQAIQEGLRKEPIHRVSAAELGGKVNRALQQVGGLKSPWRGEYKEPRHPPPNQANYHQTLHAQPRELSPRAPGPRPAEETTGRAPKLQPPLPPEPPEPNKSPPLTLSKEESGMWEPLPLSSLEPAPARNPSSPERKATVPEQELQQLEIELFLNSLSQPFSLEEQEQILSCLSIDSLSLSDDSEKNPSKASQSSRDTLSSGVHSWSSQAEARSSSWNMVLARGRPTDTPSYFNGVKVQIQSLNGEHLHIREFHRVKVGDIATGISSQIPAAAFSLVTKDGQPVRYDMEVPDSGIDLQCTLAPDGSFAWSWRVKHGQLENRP

| IC50 [nM] | SMILES |
| --- | --- |
| 4 | COCCCn1nc(C)cc1Nc1nccc(-c2cc(C#N)c3c(c2)[C@@](C)(CO)CN3)n1 |
| 3.2 | Cc1nn(C)cc1Nc1nccc(-c2cc(C#N)c3c(c2)C(C)(CO)CN3)n1 (stereo not drawn) |
| 21 | Cc1cc(Nc2nccc(-c3cc(C#N)c4c(c3)C(C)(CO)CN4)n2)n(CCN(C)C)n1 (stereo not drawn) |
